The source of these data is patent publication US11033547B2, “Carboxamide-pyrimidine derivatives as SHP2 antagonists” (Merck Patent GmbH, priority 2019, dated 2021).

Where a name gives a salt, the structure may show the parent alone.

Full length SHP2 protein (Recombinant Human SHP-2), sequence (Q06124 2-593 limits assumed): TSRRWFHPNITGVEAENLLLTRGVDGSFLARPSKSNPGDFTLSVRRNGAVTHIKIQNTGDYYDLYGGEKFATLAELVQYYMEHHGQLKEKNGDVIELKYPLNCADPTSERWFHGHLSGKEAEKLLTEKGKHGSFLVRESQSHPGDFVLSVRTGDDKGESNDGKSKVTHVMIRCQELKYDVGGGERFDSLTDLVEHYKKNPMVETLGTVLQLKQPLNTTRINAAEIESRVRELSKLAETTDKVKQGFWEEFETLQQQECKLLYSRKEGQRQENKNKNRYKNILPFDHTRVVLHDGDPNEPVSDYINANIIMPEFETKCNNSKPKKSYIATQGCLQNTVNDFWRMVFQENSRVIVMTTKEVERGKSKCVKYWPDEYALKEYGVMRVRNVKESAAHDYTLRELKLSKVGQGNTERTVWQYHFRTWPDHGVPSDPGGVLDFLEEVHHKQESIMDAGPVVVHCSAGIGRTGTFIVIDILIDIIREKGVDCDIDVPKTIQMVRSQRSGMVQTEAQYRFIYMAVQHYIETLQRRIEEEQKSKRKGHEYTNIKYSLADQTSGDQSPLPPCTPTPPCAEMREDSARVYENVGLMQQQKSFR

In this assay the target is Full length SHP2 protein (Recombinant Human SHP-2) (Homo sapiens, UniProt Q06124). In words: SHP2 biochemical assay (DiFMUP substrate, activating peptide IRSI_2pY). Particulars: DiFMUP substrate, activating peptide IRSI_2pY, 60 min at RT; read-out: SHP-2 Biochemical assay IC50. On the procedure:
The inhibition of SHP2 by compounds of the invention was monitored using the surrogate substrate DiFMUP after protein activation by a peptide bearing two appropriately spaced phosphotyrosine. […] The generation of the DiFMU product by activated SHP2 was monitored through Fluorescence measurement with a PerkinElmer Envision reader.
The inhibitor dose response curves were analyzed with Genedata Screener.
Usually IC50 stands for the concentration that gives 50% inhibition. Consider `CC1(N)CCN(c2nc(Cl)c(-c3cccc(F)c3)c(C(N)=O)n2)CC1` [Compound 19, 2-(4-Amino-4-methyl-piperidin-1-yl)-6-chloro-5-(3-fluorophenyl)-pyrimidine-4-carboxylic Acid Amide], for which the IC50 was 87 µM.
To `CC1(N)CCN(c2nc(N)c(-c3cccc(Cl)c3Cl)c(C(=O)NN)n2)CC1` [Compound 21, 6-Amino-2-(4-amino-4-methyl-piperidin-1-yl)-5-(2,3-dichlorophenyl)-pyrimidine-4-carboxylic Acid Hydrazide] belongs 1.6 µM; to `CC1(N)CCN(c2nc(F)c(-c3cccc(F)c3)c(C(N)=O)n2)CC1` [Compound 22, 2-(4-Amino-4-methyl-piperidin-1-yl)-6-fluoro-5-(3-fluorophenyl)-pyrimidine-4-carboxylic Acid Amide], 21 µM.
For `NCC1CN(c2nc(N)c(-c3cccc(Cl)c3Cl)c(C(N)=O)n2)CC12CCOCC2` (stereo not drawn) [Compound 23, 6-amino-2-[4-(aminomethyl)-8-oxa-2-azaspiro[4.5]decan-2-yl]-5-(2,3-dichlorophenyl)pyrimidine-4-carboxamide] the value was 4.7 µM; for `CC1(N)CCN(c2nc(O)c(-c3cccc(F)c3)c(C(N)=O)n2)CC1` [Compound 25, 2-(4-amino-4-methylpiperidin-1-yl)-5-(3-fluorophenyl)-6-hydroxypyrimidine-4-carboxamide hydrochloride], greater than 10 µM.
To `Cc1nc(N2C3COCC2CC(N)C3)nc(C(N)=O)c1-c1cccc(Cl)c1Cl` (stereo not drawn) [Compound 33, 2-(7-Amino-3-oxa-9-aza-bicyclo[3.3.1]non-9-yl)-5-(2,3-dichlorophenyl)-6-methyl-pyrimidine-4-carboxylic acid amide] belongs 2.4 µM.
Turning to `NCC1CN(c2nc(N)c(-c3cccc(Cl)c3Cl)c(C(N)=O)n2)CC12COC2` (stereo not drawn) [Compound 34, 6-amino-2-[8-(aminomethyl)-2-oxa-6-azaspiro[3.4]octan-6-yl]-5-(2,3-dichloro-phenyl)pyrimidine-4-carboxamide], the IC50 was determined as 1.1 µM.
To `Cc1nc(NC2CCC(CN)C2)nc(C(N)=O)c1-c1cccc(Cl)c1Cl` (stereo not drawn) [Compound 36, 2-(3-Aminomethyl-cyclopentylamino)-5-(2,3-dichloro-phenyl)-6-methyl-pyrimidine-4-carboxylic acid amide] belongs 13 µM; to `NC(=O)c1nc(N2CCC3(CC2)CC(N)CCO3)nc(N)c1-c1cccc(Cl)c1Cl` (stereo not drawn) [Compound 38, 6-amino-2-{4-amino-1-oxa-9-azaspiro[5.5]undecan-9-yl}-5-(2,3-dichlorophenyl)pyrimidine-4-carboxamide], 7.6 µM.
To `NC(=O)c1nc(N2CCC(C3OCCCC3N)CC2)nc(N)c1-c1cccc(Cl)c1Cl` (stereo not drawn) [Compound 39, 6-amino-2-[4-(3-aminooxan-2-yl)piperidin-1-yl]-5-(2,3-dichlorophenyl)pyrimidine-4-carboxamide] belongs 6.3 µM; to `NCC1CC2(CCN(c3nc(N)c(-c4cccc(Cl)c4Cl)c(C(N)=O)n3)CC2)CO1` (stereo not drawn) [Compound 40, 6-amino-2-[3-(aminomethyl)-2-oxa-8-azaspiro[4.5]decan-8-yl]-5-(2,3-dichlorophenyl)pyrimidine-4-carboxamide], 3.9 µM.
For `Cc1nc(N2CC3CCC(N)C3C2)nc(C(N)=O)c1-c1cccc(Cl)c1Cl` (stereo not drawn) [Compound 42, 2-(4-Amino-hexahydro-cyclopenta[c]pyrrol-2-yl)-5-(2,3-dichloro-phenyl)-6-methyl-pyrimidine-4-carboxylic acid amide] the value was 4.8 µM; for `Cc1nc(NC2CCCC2CN)nc(C(N)=O)c1-c1cccc(Cl)c1Cl` (stereo not drawn) [Compound 43, 2-(2-Aminomethyl-cyclopentylamino)-5-(2,3-dichloro-phenyl)-6-methyl-pyrimidine-4-carboxylic acid amide], 3.1 µM; for `Cc1nc(N2CC(F)(CN)C2)nc(C(N)=O)c1-c1cccc(Cl)c1Cl` [Compound 44, 2-(3-Aminomethyl-3-fluoro-azetidin-1-yl)-5-(2,3-dichloro-phenyl)-6-methyl-pyrimidine-4-carboxylic acid amide], 11 µM.
Consider `Cc1nc(N2CCC2CN)nc(C(N)=O)c1-c1cccc(Cl)c1Cl` (stereo not drawn) [Compound 46, 2-(2-Aminomethyl-azetidin-1-yl)-5-(2,3-dichloro-phenyl)-6-methyl-pyrimidine-4-carboxylic acid amide], for which the IC50 is 5.5 µM.
Take `NC(=O)c1nc(N2CC3CCCC(N)C3C2)nc(N)c1-c1cccc(Cl)c1Cl` (stereo not drawn) [Compound 50, 6-amino-2-(4-amino-octahydro-1H-isoindol-2-yl)-5-(2,3-dichlorophenyl)pyrimidine-4-carboxamide]: the half-inhibitory concentration (IC50) came out at 10 µM.
To `NC[C@@H]1CN(c2nc(N)c(-c3cccc(Cl)c3Cl)c(C(N)=O)n2)C[C@H]1c1ccccc1` [Compound 51, 6-amino-2-[(3R,4R)-3-(aminomethyl)-4-phenylpyrrolidin-1-yl]-5-(2,3-dichlorophenyl)pyrimidine-4-carboxamide] belongs 1.5 µM; to `NC(=O)c1nc(NC2CCOC3(C2)CN2CCC3CC2)nc(N)c1-c1cccc(Cl)c1Cl` (stereo not drawn) [Compound 52, 6-amino-2-({4-azaspiro[bicyclo[2.2.2]octane-2,2′-oxan]-4′-yl}amino)-5-(2,3-dichlorophenyl)pyrimidine-4-carboxamide], greater than 10 µM.
To `NCC1(O)CN(c2nc(N)c(-c3cccc(Cl)c3Cl)c(C(N)=O)n2)C1` [Compound 54, 6-amino-2-[3-(aminomethyl)-3-hydroxyazetidin-1-yl]-5-(2,3-dichlorophenyl)-pyrimidine-4-carboxamide] belongs 7.7 µM; to `CC1(CN)CN(c2nc(N)c(-c3cccc(Cl)c3Cl)c(C(N)=O)n2)C1` [Compound 55, 6-amino-2-[3-(aminomethyl)-3-methylazetidin-1-yl]-5-(2,3-dichlorophenyl)pyrimidine-4-carboxamide], 1.7 µM; to `Cc1nc(N2CC3CN(C)CC3C2)nc(C(N)=O)c1-c1cccc(Cl)c1Cl` (stereo not drawn) [Compound 56, 5-(2,3-Dichloro-phenyl)-6-methyl-2-(5-methyl-hexahydro-pyrrolo[3,4-c]pyrrol-2-yl)-pyrimidine-4-carboxylic acid amide], 0.96 µM.
Regarding `Cc1nc(N2CC(N)(CO)C2)nc(C(N)=O)c1-c1cccc(Cl)c1Cl` [Compound 57, 2-(3-Amino-3-hydroxymethyl-azetidin-1-yl)-5-(2,3-dichloro-phenyl)-6-methyl-pyrimidine-4-carboxylic acid amide], the IC50 is greater than 10 µM.
For `Cc1nc(N2CCC3(CC3N)C2)nc(C(N)=O)c1-c1cccc(Cl)c1Cl` (stereo not drawn) [Compound 58, 2-(1-Amino-5-aza-spiro[2.4]hept-5-yl)-5-(2,3-dichloro-phenyl)-6-methyl-pyrimidine-4-carboxylic acid amide] the value was 4.4 µM; for `CC1(N)CCN(c2ncc(-c3cccc4[nH]cnc34)c(C(N)=O)n2)CC1` [Compound 60, 2-(4-Amino-4-methyl-piperidin-1-yl)-5-(1H-benzoimidazol-4-yl)-pyrimidine-4-carboxylic acid amide], greater than 10 µM.
For `CC1(N)CCN(c2ncc(-c3cccc4nonc34)c(C(N)=O)n2)CC1` [Compound 61, 2-(4-Amino-4-methyl-piperidin-1-yl)-5-benzo[1,2,5]-oxadiazol-4-yl-pyrimidine-4-carboxylic acid amide] the value was greater than 10 µM.
Take `CC1(N)CCN(c2nc(N)c(-c3ccc4cn[nH]c4c3Cl)c(C(N)=O)n2)CC1` [Compound 62, 6-Amino-2-(4-amino-4-methyl-piperidin-1-yl)-5-(7-chloro-1H-indazol-6-yl)-pyrimidine-4-carboxylic acid amide]: the IC50 was greater than 10 µM.
For `NC(=O)c1nc(N[C@@H]2CCCC[C@@H]2N)nc(N)c1-c1cccc(Cl)c1Cl` [Compound 65, 6-amino-2-{[(1R,2S)-2-aminocyclohexyl]amino}-5-(2,3-dichlorophenyl)-pyrimidine-4-carboxamide] the value was 3.7 µM.
For the compound `Cc1nc(N2CCC3CCC(C2)N3)nc(C(N)=O)c1-c1cccc(Cl)c1Cl` (stereo not drawn) [Compound 68, 2-(3,9-Diaza-bicyclo[4.2.1]-non-3-yl)-5-(2,3-dichloro-phenyl)-6-methyl-pyrimidine-4-carboxylic acid amide], the IC50 came to 6.2 µM.
To `NC(=O)c1nc(N2CC(N)C2)nc(N)c1-c1cccc(Cl)c1Cl` [Compound 69, 6-amino-2-(3-aminoazetidin-1-yl)-5-(2,3-dichlorophenyl)-pyrimidine-4-carboxamide] belongs 5.6 µM; to `NC[C@@H]1[C@H]2CN(c3nc(N)c(-c4cccc(Cl)c4Cl)c(C(N)=O)n3)C[C@@H]12` [Compound 70, 6-amino-2-[(1R,5S,6R)-6-(aminomethyI)-3-azabicyclo-[3.1.0]hexan-3-yl]-5-(2,3-dichlorophenyl)pyrimidine-4-carboxamide], 5.3 µM; to `NCC1CCN1c1nc(N)c(-c2cccc(Cl)c2Cl)c(C(N)=O)n1` (stereo not drawn) [Compound 71, 6-amino-2-[2-(aminomethyl)-azetidin-1-yl]-5-(2,3-dichlorophenyl)pyrimidine-4-carboxamide], 1.3 µM.
To `Cc1nc(N2C[C@H]3CC[C@@H](N)[C@H]3C2)nc(C(N)=O)c1-c1cccc(Cl)c1Cl` [Compound 72, 2-((3aR,4R,6aS)-4-Amino-hexahydro-cyclopenta-[c]pyrrol-2-yl)-5-(2,3-dichloro-phenyl)-6-methyl-pyrimidine-4-carboxylic acid amide] belongs 6.7 µM.
For `Cc1nc(N2C[C@H]3CCC(N)[C@@H]3C2)nc(C(N)=O)c1-c1cccc(Cl)c1Cl` (stereo partly drawn) [Compound 73, 2-((3aS,6aS)-4-Amino-hexahydro-cyclopenta-[c]pyrrol-2-yl)-5-(2,3-dichloro-phenyl)-6-methyl-pyrimidine-4-carboxylic acid amide] the value was 5.2 µM.
